Laboratory results as given in patent US9675065B2 (priority 2011, dated 2017).
Entries after “also recorded” stand apart in the source; their conditions may differ.

What was measured:
[1] = 10 ml of 5 wt % stock solution + 100 microliters acidified silver chloride, ceramic cylinder
Staphylococcus aureus = type: cell-based; details: pH 7
[2] = test system: S. aureus (Staphylococcus aureus ATCC#6538); type: cell-based

Row | gas formation on the test cylinder [1] | Molecule | biocide efficacy (in words) (Staphylococcus aureus) | rate of kill / biocide efficacy (in words) [2]
1 | slow formation of gas | OO [hydrogen peroxide] | – | –
2 | – | furoyl chlorate | no antimicrobial efficacy | excellent rate of kill; also recorded: excellent biocide efficacy
